# Assays:
# Assay in all cases: relative viability (nuclei count vs DMSO), 5 days (fraction); higher = more cells survive
# Idelalisib + Vorinostat = compound: CC[C@H](Nc1ncnc2[nH]cnc12)c1nc2cccc(F)c2c(=O)n1-c1ccccc1 [Idelalisib] + O=C(CCCCCCC(=O)Nc1ccccc1)NO [Vorinostat] (partner 1 µM)
# Method in brief: (§1)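 After 5 days of treatment, lung cancer cells in 1536-well plates were fixed and stained in a single step (final 0.05% Triton X-100, 1% formaldehyde, 1 ug/ml Hoechst) and their nuclei counted on 4× images. Treatment had been applied by pin tool the day after seeding as one drug alone or as a fixed anchor-drug dose with five library-drug doses (not always all listed) in √10 steps. Relative viability is the nuclei count of treated wells divided by that of vehicle wells, and values are medians of duplicate plates.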
# Pemetrexed + Olaparib = compound: Nc1nc2[nH]cc(CCc3ccc(C(=O)N[C@@H](CCC(=O)O)C(=O)O)cc3)c2c(=O)[nH]1 [Pemetrexed] + O=C(c1cc(Cc2n[nH]c(=O)c3ccccc23)ccc1F)N1CCN(C(=O)C2CC2)CC1 [Olaparib] (partner 8 µM)
# Method in brief: as §1
# Idelalisib + OSI-027 = compound: CC[C@H](Nc1ncnc2[nH]cnc12)c1nc2cccc(F)c2c(=O)n1-c1ccccc1 [Idelalisib] + COc1cccc2cc(-c3nc([C@H]4CC[C@H](C(=O)O)CC4)n4ncnc(N)c34)[nH]c12 [OSI-027] (partner 0.5 µM)
# Method in brief: as §1
# Pemetrexed + Luminespib = compound: Nc1nc2[nH]cc(CCc3ccc(C(=O)N[C@@H](CCC(=O)O)C(=O)O)cc3)c2c(=O)[nH]1 [Pemetrexed] + CCNC(=O)c1noc(-c2cc(C(C)C)c(O)cc2O)c1-c1ccc(CN2CCOCC2)cc1 [Luminespib] (partner 0.01 µM)
# Method in brief: as §1
Cell Line,relative viability (Idelalisib + Vorinostat; first compound 0.04 µM),relative viability (Idelalisib + Vorinostat; first compound 0.1265 µM),relative viability (Idelalisib + Vorinostat; first compound 0.4 µM),relative viability (Idelalisib + Vorinostat; first compound 1.265 µM),relative viability (Idelalisib + Vorinostat; first compound 4 µM),relative viability (Pemetrexed + Olaparib; first compound 0.002 µM),relative viability (Pemetrexed + Olaparib; first compound 0.006325 µM),relative viability (Pemetrexed + Olaparib; first compound 0.02 µM),relative viability (Pemetrexed + Olaparib; first compound 0.06325 µM),relative viability (Pemetrexed + Olaparib; first compound 0.2 µM),relative viability (Idelalisib + OSI-027; first compound 0.04 µM),relative viability (Idelalisib + OSI-027; first compound 0.1265 µM),relative viability (Idelalisib + OSI-027; first compound 0.4 µM),relative viability (Idelalisib + OSI-027; first compound 1.265 µM),relative viability (Idelalisib + OSI-027; first compound 4 µM),relative viability (Pemetrexed + Luminespib; first compound 0.002 µM),relative viability (Pemetrexed + Luminespib; first compound 0.006325 µM),relative viability (Pemetrexed + Luminespib; first compound 0.02 µM),relative viability (Pemetrexed + Luminespib; first compound 0.06325 µM),relative viability (Pemetrexed + Luminespib; first compound 0.2 µM)
EMC-BAC-2,0.639,0.42,0.419,0.496,0.633,0.455,0.458,0.5,0.493,0.497,0.388,0.411,0.308,0.363,0.352,1.15,1.1,1.11,1.06,1.18
NCI-H1944,0.68,0.526,0.529,0.5,0.48,0.317,0.368,0.395,0.393,0.402,0.473,0.411,0.271,0.396,0.365,–,0.752,0.72,0.734,0.69
A-427,0.921,0.889,0.833,0.901,0.874,0.758,0.765,0.775,0.759,0.711,0.443,0.488,0.332,0.503,0.469,0.912,0.923,0.968,0.793,0.956
NCI-H520,0.768,0.708,0.669,0.722,0.488,0.282,0.385,0.356,0.335,0.319,0.287,0.265,0.186,0.206,0.179,0.215,0.234,0.223,0.261,0.2
NCI-H650,0.495,0.449,0.369,0.419,0.421,0.382,0.403,–,0.302,0.378,0.491,0.574,0.446,0.527,0.506,0.751,0.733,0.732,0.705,0.842
COR-L 105,0.859,0.876,0.778,0.724,1.11,0.706,0.74,0.746,0.738,0.662,0.739,0.629,0.505,0.725,0.579,0.77,0.834,0.673,0.862,0.729
NCI-H1755,0.884,0.748,0.751,0.634,0.723,0.777,0.857,0.875,0.89,0.781,0.69,0.687,0.584,0.675,0.573,0.421,0.594,0.631,0.415,0.437
NCI-H2085,0.794,0.788,0.702,0.614,0.484,0.755,0.74,0.802,0.806,0.789,0.738,1.01,0.521,0.725,0.325,0.386,0.304,0.449,0.414,0.427
NCI-H2023,0.909,0.702,0.469,0.375,0.682,0.431,0.463,0.456,0.36,0.158,0.473,0.339,0.285,0.278,0.313,0.717,0.656,0.932,0.483,0.227
HOP-62,0.669,0.66,0.576,0.619,0.491,–,0.443,0.55,0.391,0.387,0.775,0.879,0.719,0.888,0.767,0.85,0.936,0.851,0.814,0.932
